Assay results reported in PubChem BioAssay (NCI).
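Cells were grown in 96-well plates and exposed to each compound for 48 hours at five concentrations; endpoints were interpolated linearly between bracketing concentrations, or set to the highest concentration if not reached. Definition used: TGI = concentration required for complete inhibition of growth.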

Experiments:
Assay in all cases: NCI tumour cell line growth inhibition, 48 h
TK-10 renal = tested on: TK-10 renal
HL-60(TB) leukemia = tested on: HL-60(TB) leukemia
SK-OV-3 ovarian = tested on: SK-OV-3 ovarian
M19-MEL melanoma = tested on: M19-MEL melanoma
UACC-257 melanoma = tested on: UACC-257 melanoma
EKVX NSCLC = tested on: EKVX NSCLC
KM20L2 colon = tested on: KM20L2 colon
DMS 114 small cell lung = tested on: DMS 114 small cell lung
SK-MEL-5 melanoma = tested on: SK-MEL-5 melanoma
NCI-H460 lung = tested on: NCI-H460 lung
CCRF-CEM leukemia = tested on: CCRF-CEM leukemia
SR leukemia = tested on: SR leukemia
NCI-H226 lung = tested on: NCI-H226 lung
HCT-116 colon = tested on: HCT-116 colon
UACC-62 melanoma = tested on: UACC-62 melanoma
OVCAR-4 ovarian = tested on: OVCAR-4 ovarian
RXF-631 renal = tested on: RXF-631 renal
OVCAR-5 ovarian = tested on: OVCAR-5 ovarian
ACHN renal = tested on: ACHN renal
HT29 colon = tested on: HT29 colon
MALME-3M melanoma = tested on: MALME-3M melanoma
HCC-2998 colon = tested on: HCC-2998 colon
HCT-15 colon = tested on: HCT-15 colon
SW-620 colon = tested on: SW-620 colon
SK-MEL-28 melanoma = tested on: SK-MEL-28 melanoma
DMS 273 small cell lung = tested on: DMS 273 small cell lung
A549 NSCLC = tested on: A549 NSCLC
SK-MEL-2 melanoma = tested on: SK-MEL-2 melanoma
SF-295 CNS = tested on: SF-295 CNS
786-0 renal = tested on: 786-0 renal
XF 498 CNS = tested on: XF 498 CNS
U251 CNS = tested on: U251 CNS
OVCAR-8 ovarian = tested on: OVCAR-8 ovarian
HOP-92 NSCLC = tested on: HOP-92 NSCLC
HOP-18 NSCLC = tested on: HOP-18 NSCLC
SNB-78 CNS = tested on: SNB-78 CNS
SNB-19 CNS = tested on: SNB-19 CNS
LXFL 529 NSCLC = tested on: LXFL 529 NSCLC
KM12 colon = tested on: KM12 colon
HOP-62 NSCLC = tested on: HOP-62 NSCLC
M14 melanoma = tested on: M14 melanoma
K-562 leukemia = tested on: K-562 leukemia
NCI-H23 lung = tested on: NCI-H23 lung
DLD-1 colon = tested on: DLD-1 colon
CAKI-1 renal = tested on: CAKI-1 renal
RXF 393 renal = tested on: RXF 393 renal
SNB-75 CNS = tested on: SNB-75 CNS
NCI-H522 lung = tested on: NCI-H522 lung
SN12C renal = tested on: SN12C renal
SF-268 CNS = tested on: SF-268 CNS
RPMI-8226 leukemia = tested on: RPMI-8226 leukemia
IGROV1 ovarian = tested on: IGROV1 ovarian
A498 renal = tested on: A498 renal
MOLT-4 leukemia = tested on: MOLT-4 leukemia
UO-31 renal = tested on: UO-31 renal
SF-539 CNS = tested on: SF-539 CNS
OVCAR-3 ovarian = tested on: OVCAR-3 ovarian
LOX IMVI melanoma = tested on: LOX IMVI melanoma
COLO 205 colon = tested on: COLO 205 colon

With `CN(C)C(=S)/N=c1\ssc(=S)n1C` the TGI (TK-10 renal) was > 100 µM, the TGI (HL-60(TB) leukemia) was > 100 µM and the TGI (SK-OV-3 ovarian) was > 100 µM. The TGI (M19-MEL melanoma) was > 100 µM, the TGI (UACC-257 melanoma) was > 100 µM and the TGI (EKVX NSCLC) was > 100 µM. The TGI (KM20L2 colon) was > 100 µM, the TGI (DMS 114 small cell lung) was > 100 µM and the TGI (SK-MEL-5 melanoma) was > 100 µM. For the same compound, the TGI (NCI-H460 lung) was > 100 µM, the TGI (CCRF-CEM leukemia) was > 100 µM and the TGI (SR leukemia) was > 100 µM. The TGI (NCI-H226 lung) was > 100 µM, the TGI (HCT-116 colon) was > 100 µM and the TGI (UACC-62 melanoma) was > 100 µM. The TGI (OVCAR-4 ovarian) was > 100 µM, the TGI (RXF-631 renal) was > 100 µM and the TGI (OVCAR-5 ovarian) was > 100 µM. The TGI (ACHN renal) was > 100 µM, the TGI (HT29 colon) was > 100 µM and the TGI (MALME-3M melanoma) was > 100 µM. The TGI (HCC-2998 colon) was > 100 µM, the TGI (HCT-15 colon) was > 100 µM and the TGI (SW-620 colon) was > 100 µM. For the same compound, the TGI (SK-MEL-28 melanoma) was > 100 µM, the TGI (DMS 273 small cell lung) was > 100 µM and the TGI (A549 NSCLC) was > 100 µM. For the same compound, the TGI (SK-MEL-2 melanoma) was > 100 µM, the TGI (SF-295 CNS) was > 100 µM and the TGI (786-0 renal) was > 100 µM. For the same compound, the TGI (XF 498 CNS) was > 100 µM, the TGI (U251 CNS) was > 100 µM and the TGI (OVCAR-8 ovarian) was > 100 µM. The TGI (HOP-92 NSCLC) was > 100 µM, the TGI (HOP-18 NSCLC) was > 100 µM and the TGI (SNB-78 CNS) was > 100 µM. The TGI (SNB-19 CNS) was > 100 µM, the TGI (LXFL 529 NSCLC) was > 100 µM and the TGI (KM12 colon) was > 100 µM. The TGI (HOP-62 NSCLC) was > 100 µM, the TGI (M14 melanoma) was > 100 µM and the TGI (K-562 leukemia) was > 100 µM. For the same compound, the TGI (NCI-H23 lung) was > 100 µM, the TGI (DLD-1 colon) was > 100 µM and the TGI (CAKI-1 renal) was > 100 µM. For the same compound, the TGI (RXF 393 renal) was > 100 µM, the TGI (SNB-75 CNS) was > 100 µM and the TGI (NCI-H522 lung) was > 100 µM. For the same compound, the TGI (SN12C renal) was > 100 µM, the TGI (SF-268 CNS) was > 100 µM and the TGI (RPMI-8226 leukemia) was > 100 µM. The TGI (IGROV1 ovarian) was > 100 µM, the TGI (A498 renal) was > 100 µM and the TGI (MOLT-4 leukemia) was > 100 µM. The TGI (UO-31 renal) was > 100 µM and the TGI (SF-539 CNS) was > 100 µM.

For `C[N+](C)(C)CC1CCCCC1=O` (configuration not stated), the TGI (TK-10 renal) was > 100 µM, the TGI (HL-60(TB) leukemia) was 34.7 µM and the TGI (OVCAR-3 ovarian) was 34.5 µM. For the same compound, the TGI (SK-OV-3 ovarian) was > 100 µM, the TGI (M19-MEL melanoma) was 35.2 µM and the TGI (UACC-257 melanoma) was 30.9 µM. The TGI (EKVX NSCLC) was 57.5 µM, the TGI (KM20L2 colon) was 4.65 µM and the TGI (DMS 114 small cell lung) was > 100 µM. For the same compound, the TGI (SK-MEL-5 melanoma) was 80.3 µM, the TGI (NCI-H460 lung) was > 100 µM and the TGI (CCRF-CEM leukemia) was 20.2 µM. The TGI (NCI-H226 lung) was > 100 µM, the TGI (HCT-116 colon) was 31.5 µM and the TGI (UACC-62 melanoma) was 34 µM. The TGI (ACHN renal) was 34.4 µM, the TGI (HT29 colon) was 38.3 µM and the TGI (MALME-3M melanoma) was 38.6 µM. For the same compound, the TGI (HCT-15 colon) was 29 µM, the TGI (SW-620 colon) was 29.7 µM and the TGI (SK-MEL-28 melanoma) was 31.6 µM. The TGI (DMS 273 small cell lung) was > 100 µM, the TGI (A549 NSCLC) was > 100 µM and the TGI (SF-295 CNS) was > 100 µM. The TGI (786-0 renal) was > 100 µM, the TGI (U251 CNS) was > 100 µM and the TGI (OVCAR-8 ovarian) was 41.1 µM. It also gave a TGI (LOX IMVI melanoma) of 27.5 µM, a TGI (HOP-18 NSCLC) of 30.4 µM and a TGI (COLO 205 colon) of 49.3 µM. For the same compound, the TGI (SNB-19 CNS) was > 100 µM, the TGI (KM12 colon) was > 100 µM and the TGI (HOP-62 NSCLC) was > 100 µM. For the same compound, the TGI (M14 melanoma) was 30.2 µM, the TGI (K-562 leukemia) was 64.3 µM and the TGI (NCI-H23 lung) was 40.8 µM. For the same compound, the TGI (DLD-1 colon) was 39.2 µM, the TGI (RXF 393 renal) was 33.8 µM and the TGI (SNB-75 CNS) was 81.2 µM. For the same compound, the TGI (NCI-H522 lung) was 36.2 µM, the TGI (SN12C renal) was > 100 µM and the TGI (RPMI-8226 leukemia) was 44.7 µM. The TGI (IGROV1 ovarian) was > 100 µM, the TGI (MOLT-4 leukemia) was 35.3 µM and the TGI (UO-31 renal) was > 100 µM. The TGI (SF-539 CNS) was > 100 µM.
